# Measured values as given in ChEMBL document CHEMBL1201862, “PubChem BioAssay data set” (2004).
#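 48-hour exposure; five concentrations; linearly interpolated endpoints. At the GI50, growth is halved.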 Active and inactive are the calls of the source. No stated cut-off is given here; in the data, active = GI50 up to about 1.1 µM and inactive = higher.
# Tests used:
# Experiment in all cases: growth of human tumour cells (NCI), 48 h
# DU-145 = tested on: DU-145
# HCT-116 = tested on: HCT-116
# HL-60 = tested on: HL-60
# M14 = tested on: M14
# MCF7 = tested on: MCF7
# MDA-MB-231 = tested on: MDA-MB-231
# MDA-N = tested on: MDA-N
# Malme-3M = tested on: Malme-3M
# NCI-H522 = tested on: NCI-H522
# NCI/ADR-RES = tested on: NCI/ADR-RES
# OVCAR-4 = tested on: OVCAR-4
# PC-3 = tested on: PC-3
# SF-268 = tested on: SF-268
# SF-539 = tested on: SF-539
# SK-MEL-5 = tested on: SK-MEL-5
# SK-OV-3 = tested on: SK-OV-3
# T47D = tested on: T47D
# U-251 = tested on: U-251
# UACC-257 = tested on: UACC-257
# UO-31 = tested on: UO-31
SMILES,GI50 (DU-145),GI50 (HCT-116),GI50 (HL-60),GI50 (M14),GI50 (MCF7),GI50 (MDA-MB-231),GI50 (MDA-N),GI50 (Malme-3M),GI50 (NCI-H522),GI50 (NCI/ADR-RES),GI50 (OVCAR-4),GI50 (PC-3),GI50 (SF-268),GI50 (SF-539),GI50 (SK-MEL-5),GI50 (SK-OV-3),GI50 (T47D),GI50 (U-251),GI50 (UACC-257),GI50 (UO-31)
C=C(C)[C@@H]1CC[C@]2(C(=O)O)CC[C@]3(C)[C@H](CC[C@@H]4[C@@]5(C)CC(=O)C(C)(C)[C@@H]5CC[C@]43C)[C@@H]12,12.5 µM (inactive),4.01 µM (inactive),0.649 µM (active),8.65 µM (inactive),6.64 µM (inactive),5.65 µM (inactive),8.13 µM (inactive),8.05 µM (inactive),5.78 µM (inactive),11.1 µM (inactive),15 µM (inactive),7.24 µM (inactive),14.8 µM (inactive),6.08 µM (inactive),5.7 µM (inactive),10 µM (inactive),14.9 µM (inactive),6.47 µM (inactive),7.55 µM (inactive),7.29 µM (inactive)
N#CC(c1ccccc1)N(CCc1ccccc1)C(=O)c1ccccc1 (stereo not given),> 100 µM (inactive),> 74.8 µM (inactive),> 100 µM (inactive),> 100 µM (inactive),> 100 µM (inactive),47.8 µM (inactive),> 100 µM (inactive),> 72.1 µM (inactive),> 59.2 µM (inactive),42.9 µM (inactive),51.2 µM (inactive),> 93.8 µM (inactive),30.2 µM (inactive),31.3 µM (inactive),> 100 µM (inactive),53.3 µM (inactive),> 100 µM (inactive),52.4 µM (inactive),> 100 µM (inactive),> 74.6 µM (inactive)
CCOC(=O)Cn1c(C(F)(F)F)nc2nc(Cl)c(Cl)nc21,3.8 µM (inactive),38.9 µM (inactive),19.7 µM (inactive),41.3 µM (inactive),23.3 µM (inactive),58.9 µM (inactive),37.2 µM (inactive),38.4 µM (inactive),20.8 µM (inactive),50.2 µM (inactive),15.2 µM (inactive),32.2 µM (inactive),34 µM (inactive),> 55.7 µM (inactive),27.3 µM (inactive),49.1 µM (inactive),33.3 µM (inactive),33.5 µM (inactive),19.6 µM (inactive),3.44 µM (inactive)
O=C1/C(=C/c2ccc([N+](=O)[O-])cc2)CNC/C1=C\c1ccc([N+](=O)[O-])cc1,10.8 µM (inactive),0.63 µM (active),0.0944 µM (active),12.5 µM (inactive),2.74 µM (inactive),2.69 µM (inactive),6.27 µM (inactive),46.5 µM (inactive),2.52 µM (inactive),5.09 µM (inactive),3.63 µM (inactive),6.7 µM (inactive),1.65 µM (inactive),2.09 µM (inactive),10.8 µM (inactive),48 µM (inactive),18.7 µM (inactive),0.469 µM (active),45.5 µM (inactive),6.17 µM (inactive)
CC(C)NC(=O)OCCN=C1c2ccccc2C(Br)C(Br)c2ccccc21 (stereo not given),6.98 µM (inactive),7.01 µM (inactive),1.05 µM (active),8.65 µM (inactive),12.1 µM (inactive),11.5 µM (inactive),5.85 µM (inactive),5.4 µM (inactive),1.68 µM (inactive),16 µM (inactive),6.93 µM (inactive),11.6 µM (inactive),14.4 µM (inactive),4.02 µM (inactive),7.19 µM (inactive),26.1 µM (inactive),3.25 µM (inactive),10 µM (inactive),7.35 µM (inactive),4.21 µM (inactive)
C/C(=N/c1[nH]c(=O)cc2c1C(=O)CC2)N(C)C,> 200 µM (inactive),> 200 µM (inactive),> 200 µM (inactive),> 200 µM (inactive),> 200 µM (inactive),> 200 µM (inactive),> 200 µM (inactive),> 200 µM (inactive),> 200 µM (inactive),> 200 µM (inactive),> 200 µM (inactive),> 200 µM (inactive),> 200 µM (inactive),> 200 µM (inactive),> 200 µM (inactive),> 200 µM (inactive),> 200 µM (inactive),> 200 µM (inactive),> 200 µM (inactive),> 200 µM (inactive)
CSC1(SC)CCCCCCCCCCC1,55.3 µM (inactive),17 µM (inactive),46.3 µM (inactive),47.5 µM (inactive),21.3 µM (inactive),41.4 µM (inactive),42.8 µM (inactive),25.5 µM (inactive),16.3 µM (inactive),41.2 µM (inactive),49.4 µM (inactive),40.9 µM (inactive),53.7 µM (inactive),> 100 µM (inactive),35.2 µM (inactive),83.9 µM (inactive),25 µM (inactive),32.4 µM (inactive),27.5 µM (inactive),31.3 µM (inactive)
COc1nc2c(c(=O)n1C)N(C(C)=O)C1C(N2)OCC(OC(C)=O)C1OC(C)=O (stereo not given),> 10 µM (inactive),> 10 µM (inactive),> 10 µM (inactive),> 10 µM (inactive),> 10 µM (inactive),> 10 µM (inactive),> 10 µM (inactive),> 10 µM (inactive),> 10 µM (inactive),> 10 µM (inactive),> 10 µM (inactive),> 10 µM (inactive),> 10 µM (inactive),> 10 µM (inactive),> 10 µM (inactive),> 10 µM (inactive),> 10 µM (inactive),> 10 µM (inactive),> 10 µM (inactive),> 10 µM (inactive)
CCOC(=O)c1cccc(/N=N/c2ncc(/C=C/C(=O)OC)[nH]2)c1,19.1 µM (inactive),18.2 µM (inactive),5.97 µM (inactive),26 µM (inactive),21.6 µM (inactive),36.7 µM (inactive),15.7 µM (inactive),22.6 µM (inactive),15.7 µM (inactive),22 µM (inactive),17.9 µM (inactive),24.3 µM (inactive),26.8 µM (inactive),21.5 µM (inactive),10.8 µM (inactive),55.7 µM (inactive),29.3 µM (inactive),22.6 µM (inactive),16.2 µM (inactive),18 µM (inactive)
CCC1([N+](=O)[O-])CC2C=CC1C2 (stereo not given),> 100 µM (inactive),> 100 µM (inactive),49.9 µM (inactive),> 100 µM (inactive),> 100 µM (inactive),> 100 µM (inactive),> 100 µM (inactive),> 100 µM (inactive),> 100 µM (inactive),> 100 µM (inactive),> 100 µM (inactive),> 100 µM (inactive),> 100 µM (inactive),> 100 µM (inactive),> 100 µM (inactive),> 100 µM (inactive),> 100 µM (inactive),> 100 µM (inactive),> 100 µM (inactive),> 100 µM (inactive)
Cc1cn(C2CC(O)C(Cn3cc(Cn4ncc(=O)[nH]c4=O)nn3)O2)c(=O)[nH]c1=O (stereo not given),> 100 µM (inactive),> 100 µM (inactive),> 100 µM (inactive),> 100 µM (inactive),> 100 µM (inactive),> 100 µM (inactive),> 100 µM (inactive),> 100 µM (inactive),> 100 µM (inactive),> 100 µM (inactive),> 100 µM (inactive),> 100 µM (inactive),> 100 µM (inactive),> 100 µM (inactive),> 100 µM (inactive),> 100 µM (inactive),> 100 µM (inactive),> 100 µM (inactive),> 100 µM (inactive),> 100 µM (inactive)
O=C([O-])C(O)C(O)C(O)C(O)C(=O)O.[K+] (stereo not given),> 100 µM (inactive),> 100 µM (inactive),76.2 µM (inactive),> 100 µM (inactive),> 100 µM (inactive),> 100 µM (inactive),> 100 µM (inactive),> 100 µM (inactive),> 100 µM (inactive),> 100 µM (inactive),> 100 µM (inactive),> 100 µM (inactive),> 100 µM (inactive),> 100 µM (inactive),> 100 µM (inactive),> 100 µM (inactive),> 100 µM (inactive),> 100 µM (inactive),> 100 µM (inactive),> 100 µM (inactive)
CC(C)(C)O/N=C/c1cc(NC(=S)c2ccccc2)ccc1Cl,17.3 µM (inactive),12.3 µM (inactive),16.3 µM (inactive),18.6 µM (inactive),22.9 µM (inactive),21.3 µM (inactive),14.2 µM (inactive),19 µM (inactive),11.3 µM (inactive),15.6 µM (inactive),18.3 µM (inactive),16.4 µM (inactive),21.1 µM (inactive),25.7 µM (inactive),21 µM (inactive),29.4 µM (inactive),18.9 µM (inactive),17 µM (inactive),13.1 µM (inactive),12.8 µM (inactive)
C[C@@H]1C[C@@H]2OC(=O)[C@]3(C)[C@H]2[C@@H](OC3(C)O)[C@]2(C)C(=O)C=C[C@@H]12 (stereo not given in full) [TENULIN],39.6 µM (inactive),16.6 µM (inactive),3.48 µM (inactive),20.6 µM (inactive),15.7 µM (inactive),25 µM (inactive),17.5 µM (inactive),13.6 µM (inactive),6.67 µM (inactive),> 100 µM (inactive),10.8 µM (inactive),87.9 µM (inactive),31.3 µM (inactive),32.1 µM (inactive),20.2 µM (inactive),> 100 µM (inactive),19 µM (inactive),40.3 µM (inactive),18 µM (inactive),40.8 µM (inactive)
